Data as given in patent publication US12590123B2, “Compounds and methods for treating cancer, viral infections, and allergic conditions” (Washington University, priority 2019, dated 2026).
pIC50: −log10 of the molar value.

Assays:
Type in all cases: biochemical
activated hepsin = biological target: T1, activated hepsin (Homo sapiens, UniProt P05981); assay: Fluorescent kinetic enzyme assay of hepsin activity (Boc-QAR-AMC); settings: Table 2; read-out: Hepsin (IC50 nM)
T1 construct: purchased R&D Systems 4776-SE-010
T1 sequence (P05981 163-417 limits assumed): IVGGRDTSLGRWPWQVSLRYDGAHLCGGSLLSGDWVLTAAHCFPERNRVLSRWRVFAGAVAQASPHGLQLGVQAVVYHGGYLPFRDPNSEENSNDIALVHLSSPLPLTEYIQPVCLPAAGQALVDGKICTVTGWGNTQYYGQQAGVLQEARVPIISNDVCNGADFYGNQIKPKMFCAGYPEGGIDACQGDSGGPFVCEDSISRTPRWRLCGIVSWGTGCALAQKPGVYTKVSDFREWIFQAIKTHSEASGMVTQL
T1 sequence (P05981 1-162 partner limits assumed): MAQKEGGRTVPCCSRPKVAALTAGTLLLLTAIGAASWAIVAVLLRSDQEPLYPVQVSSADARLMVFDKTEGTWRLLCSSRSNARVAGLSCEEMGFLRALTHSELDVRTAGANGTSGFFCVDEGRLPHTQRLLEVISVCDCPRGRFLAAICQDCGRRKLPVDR
Description: After thirty minutes of incubation at room temperature, Boc-QLR-AMC substrate was added (HGFA assay) or Boc-QAR-AMC substrate (matriptase, and hepsin assays). […] From a plot of the mean reaction velocity versus the inhibitor concentration, a non-linear four parameter curve fit was performed using GraphPad Prism (GraphPad Software, San Diego, CA) to determine inhibitor IC50s. The IC50 values were determined from the average of three or more separate experimental determinations. Apparent Ki values were calculated using the Cheng and Prusoff equation (Ki=IC50/(1+[S]/Km).
Inhibitors were pre-incubated with protease followed by the addition of the substrate. Inhibition of substrate proteolysis derived fluorescence was monitored kinetically over a period of one hour.

[1] = biological target: T2, recombinant HGFA serine protease domain (Homo sapiens, UniProt Q04756); assay: Fluorescent kinetic enzyme assay of HGFA activity (Boc-QLR-AMC); settings: Table 2; read-out: HGFA (IC50 nM)
T2 construct: His6 tag (N); seven amino acid spacer plus TEV cleavage site (N); made in house; host or cells: High 5 insect cells (baculovirus; Sf9 for virus production)
T2 sequence (Q04756 373-655): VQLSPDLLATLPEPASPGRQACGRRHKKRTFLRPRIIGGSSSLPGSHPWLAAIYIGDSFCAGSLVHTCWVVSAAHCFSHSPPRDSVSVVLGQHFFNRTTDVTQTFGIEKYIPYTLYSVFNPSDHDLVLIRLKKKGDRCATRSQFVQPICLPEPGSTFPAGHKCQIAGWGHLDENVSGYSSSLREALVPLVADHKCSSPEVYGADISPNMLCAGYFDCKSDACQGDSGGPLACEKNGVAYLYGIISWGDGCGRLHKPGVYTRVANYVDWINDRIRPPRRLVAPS
In short: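 His-tagged HGFA protease domain from baculovirus-infected High 5 cells, 6.25 nM in pH 8 Tris/NaCl/5 mM CaCl2/0.01% Triton X-100 with 2% DMSO. IC50 from four-parameter velocity fit (≥3 runs); apparent Ki by Cheng–Prusoff.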

KLK5 = biological target: T3, KLK5 (Homo sapiens, UniProt Q9Y337); assay: Fluorescent kinetic enzyme inhibitor assay of KLK5 (Boc-VPR-AMC); settings: Table 4; 7.5 nM KLK5, 100 μM substrate
T3 construct: purchased R&D Systems 1108-SE-010
T3 sequence (Q9Y337 23-293): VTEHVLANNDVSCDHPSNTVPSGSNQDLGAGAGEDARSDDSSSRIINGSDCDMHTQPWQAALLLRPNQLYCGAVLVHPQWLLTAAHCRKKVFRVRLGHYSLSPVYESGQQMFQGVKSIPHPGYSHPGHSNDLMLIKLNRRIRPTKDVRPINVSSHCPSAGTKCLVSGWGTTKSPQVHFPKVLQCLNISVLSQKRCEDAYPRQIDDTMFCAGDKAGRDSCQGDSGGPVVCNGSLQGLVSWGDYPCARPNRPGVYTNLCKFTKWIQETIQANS
Description: Fluorescent Kinetic Enzyme Inhibitor Assay of KLK5: Inhibitors (11-pt serial dilutions, 0-20 μM final concentration in reaction) were serially diluted in DMSO (2% DMSO final concentration) and then mixed with KLK5 (#1108-SE-010, R&D Systems, Minneapolis, Minnesota) in black 384 well plates (Corning #3575. Corning, NY). The final assay concentration for KLK5 is 7.5 nM in TNC buffer (25 mM Tris, 150 mM NaCl, 5 mM CaCl2), 0.01% Triton X-100, pH 8). After thirty minutes incubation at room temperature, Boc-VPR-AMC substrate was added. The final substrate concentrations for assay is 100 μM. Changes in fluorescence (excitation at 380 nm and emission at 460 nm) were measured at room temperature over time in a Biotek Synergy 2 plate reader (Winnoski, VT). Using GraphPad Prism version 6.04 software program, (GraphPad Software, San Diego, CA, graphpad.com), a four parameter curve fit was used to determine the inhibitor IC50s from a plot of the mean reaction velocity versus the inhibitor concentration. The IC50 values represent the average of three or more separate experimental determinations.

Compound: CC(=O)N[C@H]1CC(=O)NCCCC[C@@H](C(=O)N[C@@H](CCCNC(=N)N)C(=O)c2nc3ccccc3s2)NC(=O)[C@H](Cc2ccccc2)NC1=O [VD3112, (3S,6S,14S)-6-acetamido-N—((S)-1-(benzo[d]thiazol-2-yl)-5-guanidino-1-oxopentan-2-yl)-3-benzyl-2,5,8-trioxo-1,4,9-triazacyclotetradecane-14-carboxamide]
- IC50 (activated hepsin): 17.4 nM
- IC50 [1]: 3170 nM
- pIC50 (KLK5): 5.60
